Assay results reported in US20130266557A1, “METHODS FOR TREATMENT OF A SARCOMA USING AN EPIMETABOLIC SHIFTER (COENZYME Q10)” (priority 2009, published 2013).

Assays:
Assay type in all cases: cell-based
[1] = test system: Ewing JDT cell line; assay: Protein expression in Ewing JDT cell line
[2] = test system: NCIES0808 cells; assay: Real-time PCR, Human Angiogenesis Arrays; settings: 100 uM Q10
Method: NCIES0808 cells were plated in T25 flasks at a density of 2×10^6 cells per flask in media or media containing 50 uM/100 uM Q10. All treatment groups were run in triplicate. Cells were harvested at 0, 3, 6, 24 or 48 hours. Pictures were taken to examine cell morphology before harvesting. To harvest cells, media was removed but saved to be able to collect floating apoptotic cells. Cells were trypsinized with 1 ml of trypsin-EDTA and the enzyme action was stopped by addition of 4 ml complete media. Trypsinized cells were added to the appropriate tube containing the media with dead cells. Cells were centrifuged at 1200 rpm for 5 minutes and media was aspirated leaving behind the cell pellet for RNA extraction. RNA isolation from cell pellets was carried out with the RNeasy kit (Qiagen, Valencia Calif.) according to the manufacturer's instructions. RNA samples were eluted from spin columns in water; absorbance was measured at 260 nm, 230 nm and 280 nm. The purity of RNA was evaluated by the 260/230 and 280/230 ratios. The concentration of RNA in all of the samples was calculated from absorbance values at […]. First strand cDNA was synthesized from 0.5 ug of all RNA samples using instructions provided with the First strand kit (SABiosciences, Frederick, Md.). The synthesized first strand from a sample was dispensed equally in a PCR array plate containing primers within a pathway (Angiogenesis, Diabetes and Mitochondria) (SABiosciences Corporation, Frederick, Md.). The arrays were amplified with real time PCR using the SYBR green detection methods using manufacturer approved protocols. The ct values from each of the samples were normalized to three housekeeping genes and fold regulation of Q10 treated groups was compared to time matched controls from cells grown in regular media was calculated.
The experiments described in this example were performed to test the overall hypothesis that Q10 would have an impact on expression of multiple genes in Ewing's sarcoma cells. The mRNA from NCIES0808 cells treated with 50 μM or 100 μM Q10 for various times was evaluated by RT-PCR against a panel of target proteins involved in human diabetes, human angiogenesis or human mitochondrial pathways.
Ct values obtained from a real time thermocycler were loaded onto the analysis tool on the SABiosciences website for calculation of fold regulation compared to cells with media. The genes that are included in the tables below are those that show a p value of close to 0.05.

[3] = test system: normal fibroblast; assay: Bcl2 level on co-administration with VEGF; settings: co-administration of CoQ-10 and VEFG
From the text: The term “Multidimensional Intracellular Molecule (MIM)”, is an isolated version or synthetically produced version of an endogenous molecule that is naturally produced by the body and/or is present in at least one cell of a human. A MIM is capable of entering a cell and the entry into the cell includes complete or partial entry into the cell as long as the biologically active portion of the molecule wholly enters the cell. MIMs are capable of inducing a signal transduction and/or gene expression mechanism within a cell. MIMs are multidimensional because the molecules have both a therapeutic and a carrier, e.g., drug delivery, effect. MIMs also are multidimensional because the molecules act one way in a disease state and a different way in a normal state.

[4] = test system: Ewing Sarcoma cell lines (JDT, 0808); assay: Combined antibody array, 2-D gel/MS and real time PCR microarray; settings: in response to CoQ10 treatment
From the text: Functional groups were identified using “The Database for Annotation, Visualization and Integrated Discovery’ [DAVID] that subdivided the genes in 42 major clusters. Maximum number of genes from the list were segregated within the “Regulation of Cellular Process” and “Metabolic Process” functional groups with the other proteins spread over functional groups including regulation of transcription, programmed cell death, cell development, cytoskeleton, nucleus, proteosome and organ development.

Question: Coenzyme Q10 [CoQ10] was tested. Which “increase in Caspase 3 expression” value ([1]; 100 μM CoQ10, within one hour after exposure) did it give?
Answer: 30%

Question: What about the “Caspase 3 expression” value ([1]; one hour after CoQ10 treatment) of the same substance?
Answer: significant increase

Question: What about the p53 expression ([1]; one hour after treatment with CoQ10) of the same substance?
Answer: significant increase

Question: What about the “Pattern of regulation, ANGPTL3 mRNA” value ([2]; 3 hours) of the same substance?
Answer: Down regulation at 3 hours with 100 uM Q10.

Question: What about the “Pattern of regulation, CCL2 mRNA” value ([2]; 3 hours) of the same substance?
Answer: Down regulation at 3 hours with 100 uM Q10.

Question: What about the “Pattern of regulation, CDH5 mRNA” value ([2]; 3 hours) of the same substance?
Answer: Down regulation at 3 and 24 hours with 100 uM Q10.

Question: And the “Pattern of regulation, CXCL1 mRNA” value ([2]; 3 hours)?
Answer: Down regulation at 3 hours with 100 uM Q10

Question: What about the “Pattern of regulation, CXCL3 mRNA” value ([2]; 3 hours) of the same substance?
Answer: Down regulation at 3 hours with 100 uM Q10.

Question: What about the “Pattern of regulation, LAMA5 mRNA” value ([2]; 6 hours) of the same substance?
Answer: Up regulation at 6 hours with 100 uM Q10.

Question: What about the “Pattern of regulation, CDH5 mRNA” value ([2]; 24 hours) of the same substance?
Answer: Down regulation at 3 and 24 hours with 100 uM Q10.

Question: And the “Pattern of regulation, PXLDC1 mRNA” value ([2]; 48 hours)?
Answer: Up regulation at 48 hours with 100 uM Q10.

Question: What about the “Level of Bcl2” value [3] of the same substance?
Answer: no effect on the levels of Bcl2

Question: And the “Number of gene products whose expression is significantly influenced” value [4]?
Answer: over 90

Question: What about the “Share of identified gene products down-regulated” value [4] of the same substance?
Answer: ~40%

Question: What about the “Share of identified gene products up-regulated” value [4] of the same substance?
Answer: approximately 60%
